Measurements published in patent US20240024294A1, “COMPOSITIONS AND METHODS FOR THE TREATMENT OR PREVENTION OF PRETERM LABOR” (XOMA (US) LLC, priority 2020, published 2024).

How the values were obtained:
human PGF2α receptor = human PGF2α receptor (Homo sapiens, UniProt P43088); settings: competitive radioligand binding, U.S. Pat. No. 8,415,480, read-out: inhibition constant (Ki); cited from earlier work
[1] = crystal form stability and hygroscopicity; assay type: physicochemical
Excerpt: For example, this compound is readily crystallized using a several distinct experimental procedures. Compound 3 assumes a single, reproducible crystal form upon crystallization from a variety of media and under different ambient conditions. […] For instance, impurities associated with atmospheric water are not readily integrated into the crystalline form of compound 3.

[2] = target: T1, Pept1 transporter protein (Homo sapiens, UniProt P46059); test: Pept1 transporter substrate assessment; assay type: in vitro ADME; settings: compound 2 and salts thereof
T1 sequence (P46059 1-708): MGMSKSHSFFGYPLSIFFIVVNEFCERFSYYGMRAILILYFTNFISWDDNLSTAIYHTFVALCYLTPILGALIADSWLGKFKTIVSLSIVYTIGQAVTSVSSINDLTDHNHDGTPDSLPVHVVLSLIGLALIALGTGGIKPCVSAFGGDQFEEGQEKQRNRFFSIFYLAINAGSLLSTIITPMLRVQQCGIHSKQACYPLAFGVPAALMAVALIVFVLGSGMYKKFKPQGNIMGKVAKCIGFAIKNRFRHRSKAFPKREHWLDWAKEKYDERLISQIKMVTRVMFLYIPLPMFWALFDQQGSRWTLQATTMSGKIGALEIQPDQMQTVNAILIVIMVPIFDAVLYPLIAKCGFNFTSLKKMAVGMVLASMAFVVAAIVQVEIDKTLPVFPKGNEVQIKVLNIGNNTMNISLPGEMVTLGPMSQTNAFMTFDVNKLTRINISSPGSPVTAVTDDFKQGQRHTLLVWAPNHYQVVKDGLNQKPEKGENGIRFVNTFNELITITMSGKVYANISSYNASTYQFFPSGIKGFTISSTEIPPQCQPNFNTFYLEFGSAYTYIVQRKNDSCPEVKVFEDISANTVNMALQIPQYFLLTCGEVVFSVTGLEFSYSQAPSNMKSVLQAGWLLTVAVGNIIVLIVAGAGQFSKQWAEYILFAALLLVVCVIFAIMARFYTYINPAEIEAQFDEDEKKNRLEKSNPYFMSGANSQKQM
Excerpt: Compound 2 is de-esterified by ambient esterases in the small intestine and subsequently penetrates the small intestinal epithelium passively. […] Pept1 is known to mediate the absorption of a variety of valinate esters, as described, for example, in Vig et al., Adv. Drug Deliv. Rev. 65:1370-1385 (2013). […] Despite the presence the valinate ester functionality, compound 2 and salts thereof are not dependent upon this transporter for absorption across the small intestinal epithelium. […] Rather, compound 2 and salts thereof are converted in vivo to a form that is readily absorbed in a manner independent of energy and local proton gradient. This beneficial property, coupled with the high aqueous solubility of compound I and salts thereof, fosters a pharmacokinetic profile in which compound 2 and salts thereof readily dissolve in an aqueous environment and are in turn converted into a form capable of transported-independent absorption.

[3] = test system: pregnant women with threatened spontaneous preterm labor; test: Phase II clinical trial Part A: time to delivery; assay type: in vivo, human
Protocol: This example reports results of a Phase II clinical trial of compound (2) in pregnant women with threatened spontaneous preterm labor. In part A of the study, compound (2) was administered in open-label fashion to n=9 patients with gestational ages of from 28 to 34 weeks in order to assess pharmacokinetics and safety. In part B of the study, compound (2) was administered to a more expansive set of n=58 subjects in order to assess efficacy, as well as to further evaluate safety.
(§1) Subjects participating in Part A of the study were diagnosed with preterm labor and were already receiving an atosiban infusion for 48 hours. Compound (2) was administered orally to each subject in an amount of 500 mg twice daily for 7 days, with a loading dose of 1,000 mg on Day 1.
(§2) In Part A of the study, fetal cardiac safety was monitored using Doppler ultrasound, and compound (2) pharmacokinetics were assessed on days 1, 2, 3 and 7 of the study. Amniotic Fluid Index was monitored from days 1 to 14. Time to delivery was also assessed.

[4] = Phase II clinical trial Part A: plasma pharmacokinetics; assay type: in vivo, human
Protocol: as §1, §2

[5] = test system: pregnant women with threatened spontaneous preterm labor; test: Phase II clinical trial Part A: safety (Doppler ultrasound, Amniotic Fluid Index, adverse events); assay type: in vivo, human
Protocol: as §1, §2

[6] = test system: pregnant women with threatened spontaneous preterm labor; test: Phase II clinical trial Part B: efficacy to delay preterm birth; assay type: in vivo, human
Protocol: (§3) A total of n=58 patients were treated with compound (2) and atosiban, and n=55 patients were treated with placebo and atosiban. As in part A, patients underwent a 48-hour infusion with atosiban. On the first day of atosiban treatment, patients were administered either placebo or compound (2) in a loading dose of 1,000 mg. On subsequent days, patients were then administered either placebo or compound (2) twice daily in an amount of 500 mg per dose until delivery.
Gestational age was confirmed by a first trimester ultrasound scan or by fertilization date. […] Subjects were required to begin treatment with atosiban within 24 hours before starting study treatment.
All participants received intravenous atosiban as standard-of-care therapy according to the approved product label for 48 hours. Treatment with study medication was to be initiated ideally simultaneously or at a maximum within 24 hours after initiating atosiban treatment. The loading dose of compound (2) was 1000 mg, with a maintenance dose of 500 mg twice a day, each 12 hours apart, for 7 days. Women allocated to the control group received the same dosing regimen with placebo. Subjects were instructed to record IMP administration in a patient diary and had to bring both opened and unopened IMP packages to each visit, in order to allow the assessment of compliance with study treatment.
Efficacy to delay preterm birth was assessed using the following outcomes: • delivery within 48 hours from start of treatment medication; • delivery within 7 days from start of treatment medication; • delivery before 37 weeks gestational age; and • time to delivery measured from start of treatment medication.
As this study was a proof-of-concept study, a primary efficacy endpoint was not prospectively defined. Other outcomes included the following: • uterine contractions assessed by electrohysterography, tocodynamometry, or abdominal palpation at each hour during the first 6 hours after start of test treatment; and • maternal plasma concentrations and pharmacokinetics of compound (1) (the active metabolite of compound (2)) and fetal cord blood concentrations at the time of delivery.
Analyses of the incidence of delivery within 2 days (48 h), within 7 days (168 h) post-compound (2) administration start, and before 37 weeks of gestational age was performed using logistic regression with treatment group as the independent variable. Strata effects (gestational age and number of fetuses) were included within the model. The treatment effect was expressed as an adjusted odds ratio with 90% confidence intervals. Treatment by strata interaction terms were explored. Other covariates explored included the pre-dose uterine contraction rate as well as the possibility of a site-to-site effect. Time to delivery measured from start of IMP administration was analyzed using Cox's proportional-hazards model. In addition, a log-rank test was performed. The analysis was performed using SAS® statistical software Version 9.4. P-values <0.10 were considered to indicate statistical significance.

[7] = test system: pregnant women with threatened spontaneous preterm labor; test: Phase II clinical trial Part B: adverse events; assay type: in vivo, human; settings: patients undergoing atosiban infusion
Protocol: as §3
All participants received intravenous atosiban as standard-of-care therapy according to the approved product label for 48 hours. […]
Safety was assessed by way of the following outcomes: • maternal incidence of adverse events (AEs), treatment-emergent adverse events (TEAEs), clinically significant changes in laboratory safety tests, and vital signs from Day 1 until 28 days after birth; • incidence of AEs indicating fetal distress, such as growth retardation and/or changes in fetal heart rate monitoring and/or amniotic fluid index (AFI) or amniotic fluid volume (in twins); and incidence of neonates experiencing adverse events, as well as clinically significant changes in vital signs, Apgar score, weight and head circumference at birth, and a measure of neonatal morbidity from birth until 28 days after birth.

[8] = relative to compound 1; cited from earlier work

Sequence of human PGF2α receptor (P43088 whole entry): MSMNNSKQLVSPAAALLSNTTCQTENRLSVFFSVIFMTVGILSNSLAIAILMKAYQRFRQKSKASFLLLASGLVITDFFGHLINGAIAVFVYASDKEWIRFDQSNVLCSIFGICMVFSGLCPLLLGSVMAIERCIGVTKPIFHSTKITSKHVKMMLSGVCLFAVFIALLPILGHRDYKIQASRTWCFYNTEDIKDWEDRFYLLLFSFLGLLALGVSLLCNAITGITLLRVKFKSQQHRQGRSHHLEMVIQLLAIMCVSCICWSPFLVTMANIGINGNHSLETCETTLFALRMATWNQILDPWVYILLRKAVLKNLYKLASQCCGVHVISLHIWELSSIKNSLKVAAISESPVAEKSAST

## O=C(N[C@@H](CCO)c1ccc(F)cc1)C1SCCN1S(=O)(=O)c1ccc(-c2ccccc2)cc1 (stereo in doubt) [Compound 1, 3-([1,1′-biphenyl]-4-ylsulfonyl)-N-[1-(4-fluorophenyl)-3-hydroxypropyl]-1,3-thiazolidine-2-carboxamide]
Human PGF2α receptor
  Ki: 6 nM

## CC(C)[C@H](N)C(=O)OCC[C@H](NC(=O)[C@@H]1SCCN1S(=O)(=O)c1ccc(-c2ccccc2)cc1)c1ccc(F)cc1.Cl [Compound 3, (3S)-3-({[(2S)-3-(biphenyl-4-ylsulfonyl)-1,3-thiazolidin-2-yl]carbonyl}-amino)-3-(4-fluorophenyl)propyl L-valinate hydrochloride]
[1]
  hygroscopicity: low hygroscopicity
[1]; ambient conditions and elevated relative humidity
  stability of crystal form: extended stability

## CC(C)[C@H](N)C(=O)OCC[C@H](NC(=O)[C@@H]1SCCN1S(=O)(=O)c1ccc(-c2ccccc2)cc1)c1ccc(F)cc1 [compound (2), (3S)-3-({[(2S)-3-(biphenyl-4-ylsulfonyl)-1,3-thiazolidin-2-yl]carbonyl}-amino)-3-(4-fluorophenyl)propyl L-valinate]
[2]
  substrate for the Pept1 transporter protein: not substrates
[3]; 9 singleton patients, 1,000 mg loading then 500 mg twice daily oral 7 days, on 48 h atosiban infusion
  patients that did not deliver within 7 days of administration: 8 patients
[3]; 9 singleton patients, oral compound (2) 7 days, on atosiban infusion
  Mean±SD time to delivery: 41 ± 23 days
[4]; Part A
  plasma concentrations and pharmacokinetic parameters compared with non-pregnant women: similar
[4]; Part A, 1,000 mg loading dose on Day 1
  day on which steady-state concentrations were achieved: 1 days
[4]; Part A, oral, day 1 to day 7, on atosiban
  absorption (plasma concentration vs. time profiles): well absorbed
[4]; Part A, listed as Compound (2)
  plasma concentrations and pharmacokinetic parameters compared with non-pregnant women: comparable
[5]
  adverse events reported for the fetuses: No adverse events
[5]; days 1 to 14 (FIG. 3)
  Amniotic Fluid Index: no clinically significant changes
[5]; fetal cardiac safety
  Doppler ultrasound findings, effect on the ductus arteriosus: no constrictive effect on the ductus arteriosus
[5]; oral administration for 7 days, women receiving atosiban
  tolerability: well tolerated
[5]; over the dosing period (FIG. 2)
  ductus arteriosus Pulsatility Index: did not decrease
[6]; all women, atosiban + compound (2) vs atosiban + placebo, adjusted odds ratio
  OR (90% CI), delivery ≤48 h: 0.52
[6]; all women, vs atosiban + placebo
  OR (90% CI), delivery ≤7 days: 1.00
[6]; in combination with atosiban, vs atosiban and placebo (FIG. 7)
  reduction in uterine contractions relative to baseline: more sustained reduction
[6]; singleton pregnancy, 24 to 30 weeks GA
  delivery rate within 7 days: 14.3%
[6]; singletons only, GA 24 to 30 wks at BL, vs atosiban + placebo
  OR (90% CI), delivery ≤7 days: 0.53
[6]; singletons only, vs atosiban + placebo
  OR (90% CI), delivery ≤48 h: 0.39
[6]; twins only, vs atosiban + placebo
  OR (90% CI), delivery ≤48 h: 2.05
[7]
  adverse events compared with placebo: fewer adverse events
[8]
  solubility in water and in FeSSIF and FaSSIF media: improvements
